# Data: patent US6987112B2, “Organic compound having cyano group and insecticides/miticides” (Nippon Soda Co., Ltd., priority 2000, dated 2006)
# Where two headings read alike, the source gives them in different places.
# Experiments:
# [1] = test system: susceptible Citrus red mite; assay: Effects on Citrus red mite (spray on adult females on Citrus leaf in Petri dish); type: in vivo; settings: Panonychus citri, read-out: percentage mortality
# Protocol: Eight adult females of susceptible Citrus red mite were inoculated on the surface of Citrus leaf placed in a glass Petridish. […] The solution was sprayed on the mites using a rotary spraying tower up to the fixed volume. […] The test was carried out in duplicate.
# Cotton Aphids = assay: Efficacy on cotton aphids (spray on 1st instar nymphs on cucumber leaves); type: in vivo; settings: 125 ppm spray, 25° C., 65% RH, five days later, duplicate
structure (smiles),measurement,setting,value
Cc1cc(Cl)ccc1N=CN(C)C [chlordimeform],mortality at 125 ppm,[1],13%
"Cn1nc(C(F)(F)F)c(C(OC(=O)C(C)(C)C)=C(C#N)Oc2ccc(Cl)cc2)c1Cl [Compound No. 3-9, β-(5-chloro-1-methyl-3-trifluoromethylpyrazole-4-yl)-α-(4-chlorophenoxy)-β-pivaloyloxyacrylonitrile]",mortality at 125 ppm,"[1]; 125 ppm spray (wettable powder), adult females on Citrus leaf, 25° C., 65% RH, third day after spraying, duplicate",100%
same,mortality at 125 ppm,"Cotton Aphids; 120 h, read-out: percentage mortality",100%
Cc1nc(N(C)C)nc(OC(=O)N(C)C)c1C [pyrimicarb],percentage mortality,Cotton Aphids,9%
